# Test results as given in patent US20060069132A1, “Azolecarboxamide herbicides” (priority 2004, published 2006).
# Experiments:
# Surinam grass = experiment: Test B pre-/postemergence herbicide test; assay type: in vivo, Urochloa decumbens; settings: for Surinam Grass plant response rating: postemergence, visual rating
# In short: (§1)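 Seeds were planted and treated preemergence with compounds formulated in a non-phytotoxic solvent mixture containing surfactant, while plants at the 1- to 4-leaf stage (2 to 18 cm) received postemergence sprays. Flooded paddy plants were grown to the 2-leaf stage. After 13 to 15 days in a greenhouse, injury was visually rated 0–100 against untreated controls.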
# cocklebur = experiment: Test B pre-/postemergence herbicide test; assay type: in vivo, Xanthium strumarium
# In short: (§2)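 Greenhouse pot assay with simultaneous preemergence (treated seed) and postemergence (2–18 cm seedlings) applications of surfactant-containing, non-phytotoxic solvent formulations. Response scored visually 13–15 days later on a 0–100 scale, 100 meaning complete control.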
# corn = experiment: Test B pre-/postemergence herbicide test; assay type: in vivo, Zea mays
# In short: as §1
# giant foxtail = experiment: Test B pre-/postemergence herbicide test; assay type: in vivo, Setaria faberi
# In short: as §1
# lambsquarters = experiment: Test B pre-/postemergence herbicide test; assay type: in vivo, Chenopodium album; settings: for Lambsquarters plant response rating: postemergence, visual rating
# In short: as §1
# morningglory = experiment: Test B pre-/postemergence herbicide test; assay type: in vivo, Ipomoea coccinea; settings: for Morningglory plant response rating: postemergence, visual rating
# In short: as §2
# pigweed = experiment: Test B pre-/postemergence herbicide test; assay type: in vivo, Amaranthus retroflexus; settings: for Pigweed plant response rating: postemergence, visual rating
# In short: as §1
# velvetleaf = experiment: Test B pre-/postemergence herbicide test; assay type: in vivo, Abutilon theophrasti; settings: for Velvetleaf plant response rating: postemergence, visual rating
# In short: as §1
# blackgrass = experiment: Test B postemergence herbicide test; assay type: in vivo, Alopecurus myosuroides; settings: scale 0 (no effect) to 100 (complete control); for Blackgrass plant response rating: postemergence, visual rating
# In short: (§3)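 Greenhouse test; postemergence application to plants at 1–4 leaves (2–18 cm); paddy species at 2 leaves; evaluated visually vs controls at 13–15 days; scale 0–100 (100 = complete control).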
# wheat = experiment: Test B postemergence herbicide test; assay type: in vivo, Triticum aestivum; set-up: key to Wheat plant response rating: 0 = no effect, 100 = complete control; settings: scale 0 (no effect) to 100 (complete control); for Wheat plant response rating: postemergence, visual rating
# In short: (§4)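 Read-out: visual comparison with controls, scored 0 to 100, where 100 means complete control and 0 no effect. Formulated chemicals were applied postemergence to plants 2–18 cm tall (1- to 4-leaf), or to flooded-paddy plants at the 2-leaf stage, then held 13 to 15 days under glass.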
# wild oat = experiment: Test B postemergence herbicide test; assay type: in vivo, Avena fatua; settings: scale 0 (no effect) to 100 (complete control); for Oat, Wild plant response rating: postemergence, visual rating
# In short: as §4
# rice = experiment: Test B flooded paddy test; assay type: in vivo, Oryza sativa; settings: 1000 g ai/ha, visual rating, scale 0 to 100 (0 no effect, 100 complete control), 13 to 15 days
# In short: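 Visual ratings, 0 (no effect) to 100 (complete control), made versus controls after 13–15 d greenhouse. Paddy plants treated at 2-leaf stage; postemergence plants at 1- to 4-leaf stage, 2–18 cm tall.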
# [1] = tested on: small flower umbrella sedge; experiment: Test B flooded paddy test; assay type: in vivo, Cyperus difformis; settings: 1000 g ai/ha, visual rating, scale 0 to 100 (0 no effect, 100 complete control), 13 to 15 days
# In short: as §3
# ducksalad = experiment: Test B flooded paddy test; assay type: in vivo, Heteranthera limosa; settings: 1000 g ai/ha, visual rating, scale 0 to 100 (0 no effect, 100 complete control), 13 to 15 days
# In short: as §3
# barnyardgrass = experiment: Test B flooded paddy test; assay type: in vivo, Echinochloa crus-galli; settings: 1000 g ai/ha, visual rating, scale 0 to 100 (0 no effect, 100 complete control), 13 to 15 days
# In short: as §3
# [2] = 125 g ai/ha, 0 = no effect, 100 = complete control, preemergence
# [3] = 500 g ai/ha, visual rating 0-100, 0 no effect, 100 complete control, preemergence
# [4] = 125 g ai/ha, scale 0 (no effect) to 100 (complete control)
# [5] = 500 g ai/ha, scale 0 (no effect) to 100 (complete control)
# [6] = postemergence, 125 g ai/ha, visual rating, scale 0 (no effect) to 100 (complete control)
# [7] = postemergence, 500 g ai/ha, visual rating, scale 0 (no effect) to 100 (complete control)
# [8] = Postemergence, 500 g ai/ha, visual rating after 13 to 15 days, scale 0 (no effect) to 100 (complete control)
# [9] = preemergence, 125 g ai/ha, 0 to 100 scale, 0 is no effect, 100 is complete control
# [10] = Preemergence, 500 g ai/ha, scale 0 to 100
# [11] = Postemergence, 500 g ai/ha, visual rating after 13 to 15 days
compound,measurement,setting,value
CCN(CC)C(=O)c1cccc(NC(=O)c2sc(C(C)(C)C)nc2C)c1 [Compound 199],Surinam Grass plant response rating (0 to 100 scale),Surinam grass; [2],10
same,"Plant response rating, Surinam Grass",Surinam grass; [3],70
same,Surinam Grass plant response rating,Surinam grass; [4],10
same,Surinam Grass plant response rating,Surinam grass; [5],20
same,Cocklebur plant response rating (0 to 100 scale),cocklebur; [2],0
same,"Plant response rating, Cocklebur",cocklebur; [3],0
same,Cocklebur plant response rating,cocklebur; [6],10
same,Cocklebur plant response rating,cocklebur; [7],60
same,Corn plant response rating (0 to 100 scale),corn; [2],0
same,"Plant response rating, Corn",corn; [3],10
same,Corn plant response rating,corn; [6],10
same,Corn plant response rating,corn; [7],20
same,"Foxtail, Giant plant response rating (0 to 100 scale)",giant foxtail; [2],10
same,"Plant response rating, Foxtail, Giant",giant foxtail; [3],100
same,"Foxtail, Giant plant response rating",giant foxtail; [6],10
same,"Foxtail, Giant plant response rating",giant foxtail; [7],10
same,Lambsquarters plant response rating (0 to 100 scale),lambsquarters; [2],80
same,"Plant response rating, Lambsquarters",lambsquarters; [3],90
same,Lambsquarters plant response rating,lambsquarters; [4],60
same,Lambsquarters plant response rating,lambsquarters; [5],70
same,Morningglory plant response rating (0 to 100 scale),morningglory; [2],0
same,"Plant response rating, Morningglory",morningglory; [3],60
same,Morningglory plant response rating,morningglory; [4],40
same,Morningglory plant response rating,morningglory; [5],60
same,Pigweed plant response rating (0 to 100 scale),pigweed; [2],90
same,"Plant response rating, Pigweed",pigweed; [3],100
same,Pigweed plant response rating,pigweed; [4],10
same,Pigweed plant response rating,pigweed; [5],40
same,Velvetleaf plant response rating (0 to 100 scale),velvetleaf; [2],0
same,"Plant response rating, Velvetleaf",velvetleaf; [3],60
same,Velvetleaf plant response rating,velvetleaf; [4],20
same,Velvetleaf plant response rating,velvetleaf; [5],30
same,Blackgrass plant response rating,blackgrass; 125 g ai/ha,0
same,Blackgrass plant response rating,blackgrass; 500 g ai/ha,10
same,Wheat plant response rating,wheat; 125 g ai/ha,0
same,Wheat plant response rating,wheat; 500 g ai/ha,10
same,"Oat, Wild plant response rating",wild oat; 125 g ai/ha,10
same,"Oat, Wild plant response rating",wild oat; 500 g ai/ha,10
same,Rice plant response rating,rice,20
same,"Sedge, Umbrella plant response rating",[1],10
same,Ducksalad plant response rating,ducksalad,0
same,Barnyardgrass plant response rating,barnyardgrass,10
CCN1CCc2c(NC(=O)c3cc(C(C)(C)C)nn3CC)cccc2C1=O [Compound 63],"Plant response rating, Surinam Grass",Surinam grass; [8],20
same,Surinam Grass plant response rating,Surinam grass; [4],10
same,"Plant response rating, Surinam Grass",Surinam grass; [9],20
same,"Plant response rating, Cocklebur",cocklebur; [8],70
same,Cocklebur plant response rating,cocklebur; [10],10
same,Cocklebur plant response rating,cocklebur; [6],60
same,"Plant response rating, Cocklebur",cocklebur; [9],0
same,"Plant response rating, Corn",corn; [8],20
same,Corn plant response rating,corn; [10],30
same,Corn plant response rating,corn; [6],20
same,"Plant response rating, Corn",corn; [9],0
same,"Plant response rating, Foxtail, Giant",giant foxtail; [8],20
same,"Foxtail, Giant plant response rating",giant foxtail; [10],100
same,"Foxtail, Giant plant response rating",giant foxtail; [6],10
same,"Plant response rating, Foxtail, Giant",giant foxtail; [9],60
same,"Plant response rating, Lambsquarters",lambsquarters; [8],80
same,Lambsquarters plant response rating,lambsquarters; [4],80
same,"Plant response rating, Lambsquarters",lambsquarters; [9],90
same,"Plant response rating, Morningglory",morningglory; [8],20
same,Morningglory plant response rating,morningglory; [4],20
same,"Plant response rating, Morningglory",morningglory; [9],0
same,"Plant response rating, Pigweed",pigweed; [8],70
same,Pigweed plant response rating,pigweed; [4],40
same,"Plant response rating, Pigweed",pigweed; [9],100
same,"Plant response rating, Velvetleaf",velvetleaf; [8],50
same,Velvetleaf plant response rating,velvetleaf; [4],40
same,"Plant response rating, Velvetleaf",velvetleaf; [9],10
same,"Plant response rating, Blackgrass",blackgrass; [11],20
same,Blackgrass plant response rating,blackgrass; 125 g ai/ha,10
same,"Plant response rating, Wheat",wheat; [11],10
same,Wheat plant response rating,wheat; 125 g ai/ha,10
same,"Plant response rating, Oat, Wild",wild oat; [11],30
same,"Oat, Wild plant response rating",wild oat; 125 g ai/ha,20
same,Rice plant response rating,rice,60
same,"Sedge, Umbrella plant response rating",[1],100
same,Ducksalad plant response rating,ducksalad,90
same,Barnyardgrass plant response rating,barnyardgrass,80
